Test results published in patent publication US20130209578A1, “Combinatory Cancer Treatment” (UNIVERSITE DE MONTREAL, priority 2010, published 2013).
“Also recorded” adds a separate entry of the source.

Legend:
[1] = biological target: T1, eIF4E (Homo sapiens, UniProt P06730); assay: 3H ribavirin immunoprecipitation with eIF4E antibodies in FaDu cells; assay type: binding; details: 24 h, 0.66 micromolar 3H ribavirin, formaldehyde cross-linked
T1 construct: endogenous in cells; host or cells: FaDu cells
T1 sequence (P06730 whole entry): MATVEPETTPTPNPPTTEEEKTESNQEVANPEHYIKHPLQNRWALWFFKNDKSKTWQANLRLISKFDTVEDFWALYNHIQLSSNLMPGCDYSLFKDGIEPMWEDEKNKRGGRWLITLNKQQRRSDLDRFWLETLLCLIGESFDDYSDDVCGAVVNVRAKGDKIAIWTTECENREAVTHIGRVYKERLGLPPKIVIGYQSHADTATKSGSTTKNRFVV
From the text: Equal amounts of lysate were used for immunoprecipitation with antibodies to eIF4E or IgG controls. After 6 washes (W), beads were eluted in SDS Buffer. ⅕ of volume was used for western blot analysis and the rest for ^3H measurement. […] Input is a positive control showing that eIF4E is present in the cell lysate.
FIG. 3 is a western blot control for FIG. 2. This western blot confirms that antibodies to eIF4E immunoprecipitated eIF4E and that eIF4E was not found in the IgG control immunoprecipitation.

[2] = system: KG-1a cells; assay: western blot of eIF4E targets, apoptosis and autophagy markers in KG-1a cells; assay type: cell-based, human; details: for Akt activation / LC3B level and cleavage (autophagy marker) / levels of eIF4E downstream targets XIAP, Mdm2, Mcl-1: KG1 cells; for levels of eIF4E downstream targets XIAP, Mdm2, Mcl-1: ribavirin 10 μM, azacytidine 3 μM
[3] = system: acute myeloid leukemia (AML); assay: phase II clinical trial of ribavirin monotherapy in leukemia (AML) patients, NCT00559091; assay type: in vivo, human
From the text: Thus, because of its properties, the eukaryotic translation initiation factor, eIF4E, has become an appealing clinical target to treat patients diagnosed with cancer, in particular AML. […] 114, no. 2 (Jul. 9, 2009, Epub 2009 May 11).
In conducting clinical trial no. […] In some patients, monotherapy had no impact. […] In fact, leukemic cells become resistant to nearly all monotherapies within two (2) to four (4) months; such being due to naturally occurring phenomena such as selective evolution (Abboud et al., “Induction therapy for elderly patients with acute myeloid leukemia”, Blood Reviews (2008) 22: 311-320, and Melnick et al., “MDS and secondary AML display unique patterns and abundance of aberrant DNA methylation”, Blood. 2009 Oct. 15; 114(16):3448-58. Epub 2009 Aug. 3). To overcome this issue of resistance, it is not uncommon in the clinical field, and as for most treatments involving a monotherapy, to follow-up this treatment with chemotherapy, as it taught in Abboud et al. (supra) and Melnick et al. (supra). As it is well known, the use of chemotherapeutic agents has many secondary effects on patients, including and not limited to damage of normal cells, anemia, bleeding, constipation, fatigue, hair loss, infections, memory changes, swelling, and even death amongst many others. Conventional chemotherapy also requires a stay at the hospital so as to administer the chemotherapeutic agent(s) as well as supportive care for the side effects. In this connection, Abboud et al., in Blood Reviews (2008, supra), review treatment strategies of patients over 60 (which are the majority of AML patients), diagnosed with AML, and the morbidities and mortalities associated with chemotherapy.
Ribavirin was used extensively as a broad-spectrum anti-viral therapy.

[4] = system: M1 and M2 AML specimens (with normal eIF4E levels); assay: methyl-cellulose colony assay, M1 and M2 AML specimens with normal eIF4E; assay type: cell-based, human; details: ribavirin 1 micromolar
From the text: (§1) FIG. 1 is a table summarizing the results of colony forming assays in methyl cellulose for primary AML specimens (purchased from the BLCQ) or specimens isolated from healthy volunteers (purchased from Stem Cell Technologies). A colony experiment typically runs for 14 days. A special media which supports hematopoietic cell growth was used (Methocult purchased from Stem Cell Technologies). Mutant refers to the presence of a mutation in the Flt3 gene (a common leukemia marker) and wildtype refers to Flt3 not being mutated in this specimen. Each experiment is carried out in quintuplicate with colony number plus/minus standard deviations given. […] Untreated controls were carried out in parallel for every single experiment. Experiments were done on specimens as described.

[5] = system: THP-1 cells; assay: western blot of eIF4E targets, apoptosis and autophagy markers in THP-1 cells; assay type: cell-based, human; details: for HoxA9 protein levels: FIG. 7
[6] = Assouline et al, Blood 2009; cited from earlier work
[7] = biological target: purified eIF4E; details: cited from earlier work
[8] = system: primary AML specimens; assay: colony forming assay in methyl cellulose, primary AML specimens; assay type: cell-based, human; details: Flt3 mutant versus Flt3 wildtype specimens, drug alone
From the text: as §1

[9] = system: M1 AML specimen with elevated eIF4E (M1-high4E); assay: methyl-cellulose colony assay, M1 AML specimen with elevated eIF4E; assay type: cell-based, human; details: ribavirin 1 micromolar, azacytidine 3 micromolar
From the text: as §1

Row | SMILES | binding of 3H ribavirin to eIF4E in living cells [1] | Akt activation [2] | LC3B level and cleavage (autophagy marker) [2] | levels of eIF4E downstream targets XIAP, Mdm2, Mcl-1 [2] | eIF4E protein levels ([2]; KG-1a and THP-1 cells, ribavirin 48 hours) | mdm2 protein level (eIF4E mRNA export target) ([2]; KG-1a cells, 48 hours) | clinical response of patients ([3]; Canada-wide clinical trial) | resistance to monotherapy in patients ([3]; clinical trial no. NCT00559091) | eIF4E protein (and RNA) levels in patients ([3]; phase II clinical trial, ribavirin monotherapy) | colonies versus untreated cells [4] | drop in colonies versus untreated cells [4] | HoxA9 protein levels [5] | mdm2 protein level (eIF4E mRNA export target) ([5]; THP-1 cells, 48 hours) | concentration in plasma from patients [6] | Kd ([7]; Kentsis 2004, read-out: affinity constant for eIF4E) | Kd for purified eIF4E in vitro ([7]; Kentsis et al. 2004) | dependence of the effect on colony growth on Flt3 status [8] | levels of NFkappaB subunit p65 ([2]; FIG. 6) | colonies versus untreated controls [9] | levels of eIF4E downstream targets XIAP, mdm2, Mcl-1 ([5]; THP-1 cells)
1 | NC(=O)c1ncn([C@@H]2O[C@H](CO)[C@@H](O)[C@H]2O)n1 [ribavirin, 1-[(2R,3R,4S,5R)-3,4-dihydroxy-5-(hydroxymethyl)oxolan-2-yl]-1H-1,2,4-triazole-3-carboxamide] | binds directly to eIF4E in living cells; also recorded: eIF4E binds ^3H ribavirin | reduces Akt activation | elevated LC3B levels | reduced the expression | do not change | downregulated | striking improvement | most if not all patients became resistant; also recorded: all eventually developed resistance | downregulation | 70-80% | ~25% | does not reverse this | downregulated | 10 to 20 µM | ~1000 nM | low micromolar range | independent of Flt3 status |  |  | 
2 | Nc1ncn([C@@H]2O[C@H](CO)[C@@H](O)[C@H]2O)c(=O)n1 [azacytidine, 4-amino-1-β-D-ribofuranosyl-1,3,5-triazin-2(1H)-one] |  | leads to Akt activation | increases the total amount of LC3B protein | gross increase; also recorded: upregulated |  |  |  |  |  |  |  | elevates |  |  |  |  | independent of Flt3 status | elevated | about 80% | upregulated; also recorded: elevated
